Experimental data taken from patent US20060122107A1 (Monash University, priority 2002, published 2006).
Entries after “also recorded” stand apart in the source; their conditions may differ. Like-named read-outs stand apart in the source and are kept apart here.

Experiments:
Serum stability assay = assay type: in vitro ADME, mouse; details: for remaining at 2 h, 0.091 mg/ml: male
Method: 10 μL of an aqueous peptide solution containing 1 mg/ml peptide was added to 100 μl of 20% mouse serum (From adult male BL6 mice), and incubated at 37° C. for 0 min, 2 hrs and 12 hrs. At each time point samples were taken and serum proteins removed by precipitation through the addition of 40 μl of 15% TCA. Samples were stored at 4° C. for 30 min and centrifuged. Supernatants were then removed and kept on ice. 50 μl of each supernatant was analysed by RP-HPLC using 0.1% TFA in water (eluent A) and 0.09% TFA in 60% aqueous acetonitrile (eluent B) and the following gradient.
The column was a Pharmacia μRPC octadecyl silica column of […] nominal particle size and 300 Å pore size. The flow rate was 200 μl/min and UV detection was used at 214 nm, 254 nm and 280 nm. Values are given as area of peptide peak (214 nm). Peptide amounts at T=0 min were used as 100%. Peptide digests were fractionated and Electrospray ionisation (ESI) Ion Trap Mass spectrometry was used to characterise the fragmentation pattern of SIINFEKL and selected β-amino acid analogues.
Since β-amino acids are resistant to proteolysis, the influence of peptide modification on stability against proteolysis was tested by monitoring the degradation of the peptides in mouse blood serum. Degradation kinetics were followed by reverse phase-HPLC (RP-HPLC) analysis using corresponding peak area for peptide quantification. The parental SIINFEKL peptide was degraded rapidly, with only 5% of the peptide being recovered after 2 hrs. For the βC3-analogues, the amount of degradation was highly dependent on the position of the substitution. Limited stabilisation occurred for peptides with substitutions at P3 and P4 with 8% and 7% recovery respectively (FIG. 11). For the substitution at P1, 10% of the initial peak was recovered. […] For β-Phe at P5 and β-Leu at P8 over 25% of the initial peak was recovered after 2 hrs.

[1] = biological target: MHC Class I H2-K^b on cells (mouse); assay: flow cytometry on RMA-S cells, with against without exogenous peptide
[2] = 20% mouse serum (From adult male BL6 mice); details: 37° C., up to 12 hrs
CD8^+ T cell response = details: mixture of peptides intradermally, patients bearing NY-ESO^+ tumors; cited from earlier work
HLA-A2 = HLA-A2 (Homo sapiens, UniProt P04439, D140Y/D185E/D98H/E176V/E277Q/G131W/G231S/I119V/I121R/I166T/I218V/L300P/L318F/N151K/N90K/P208A/P217A/Q86G/Q94H/R138H/R169H/T345S); details: cited from earlier work
[3] = construct that expresses an ER-targeted ESO157-167
[4] = tested on: SIINFEKL/K^b-restricted CD8^+ CTL clones; assay: T-hybrid CTL recognition assay (IL-2 bioassay), panel of clones; assay type: cell-based, mouse; details: 1 μM peptide pulsed on I-3 cells
Source text: (§1) The SIINFEKL/K^b-restricted CD8^+ CTL clones B3.1, GA4.2 (Nikolic-Zugic, J., and Carbone F. R. (1990). The effect of mutations in the MHC Class I peptide binding groove on the cytotoxic T lymphocyte recognition of the Kb restricted ovalbumin determinant. Eur. J. Immunol. 20:2431), 149.13.13, 149.42.12 (Clark S. R., Barnden M., Kurts C., Carbone F. R., Miller J. F., Heath J. R. Characterization of the ovalbumin-specific TCR transgenic line OT-I: MHC elements for positive and negative selection. Immunol Cell Biol. April 2000;78(2): 110-7), and the herpes simplex viral specific clone HSV2.3 (Wallace, M. E., Keating, R., Heath, W R., Carbone, F. R. 1999. […]
(§2) CTLL-2 cells were grown to ˜5×10^5 cell per ml then washed 3 times in media containing no exogenous IL-2. […] Once dry, scintillation fluid (Packard Biosciences, Melbourne) was added, then counted on a TopCount scintillation counter (Packard Biosciences, Melbourne).
(§3) CTL clones (expressing different TCR Vβ/Vα segments) restricted by the H2-K^b molecule, and specific to the SIINFEKL peptide were tested for their ability to recognise the various βC3-amino acid substituted analogues (Table X). […] CTTL-2 proliferation is then measured by 3H-Thymydine incorporation and counted on a scintillation counter.

CTL clone HSV2.3 = assay: T-hybrid CTL recognition assay (IL-2 bioassay), control clone HSV2.3; assay type: cell-based, mouse
Source text: as §1, §2, §3

[5] = biological target: H2-K^b complex with Peptide 2 (βC3-Ser at P1) on cells (mouse); assay: RMA-S stabilisation assay with 25-D1.16, flow cytometry
[6] = biological target: H2-K^b complex with Peptide 4 (βC3-Ile at P3) on cells (mouse); assay: as above
[7] = BL6, 20% mouse serum, 37° C., RP-HPLC peak area 214 nm, read-out: peptide recovered after 2 hrs

For CC[C@H](C)[C@H](NC(=O)[C@@H](NC(=O)[C@@H](N)CO)[C@@H](C)CC)C(=O)N[C@@H](CC(N)=O)C(=O)N[C@@H](Cc1ccccc1)C(=O)N[C@@H](CCC(=O)O)C(=O)N[C@@H](CCCCN)C(=O)N[C@@H](CC(C)C)C(=O)O [Peptide 1, SIINFEKL, reference compound], the remaining at 2 h, 0.091 mg/ml (Serum stability assay; [7]) was 5% and the “serum cleavage sites (MS of fragments)” value (Serum stability assay; mouse serum) was “S*I*I*NF*E*KL”.

CC[C@H](C)[C@H](NC(=O)CC(N)CO)C(=O)N[C@H](C(=O)N[C@@H](CC(N)=O)C(=O)N[C@@H](Cc1ccccc1)C(=O)N[C@@H](CCC(=O)O)C(=O)N[C@@H](CCCCN)C(=O)N[C@@H](CC(C)C)C(=O)O)[C@@H](C)CC (stereo partly drawn) [Peptide 2] gave a remaining at 2 h, 0.091 mg/ml (Serum stability assay; [7]) of 10%.

With CCC(C)C(CC(=O)N[C@H](C(=O)N[C@@H](CC(N)=O)C(=O)N[C@@H](Cc1ccccc1)C(=O)N[C@@H](CCC(=O)O)C(=O)N[C@@H](CCCCN)C(=O)N[C@@H](CC(C)C)C(=O)O)[C@@H](C)CC)NC(=O)[C@@H](N)CO (stereo partly drawn) [Peptide 3] the “resistance to proteolytic degradation” value (Serum stability assay) was “significant resistance”.

In the case of CCC(C)C(CC(=O)N[C@@H](CC(N)=O)C(=O)N[C@@H](Cc1ccccc1)C(=O)N[C@@H](CCC(=O)O)C(=O)N[C@@H](CCCCN)C(=O)N[C@@H](CC(C)C)C(=O)O)NC(=O)[C@@H](NC(=O)[C@@H](N)CO)[C@@H](C)CC (stereo partly drawn) [Peptide 4], the “serum cleavage sites (MS of fragments)” value (Serum stability assay) is reported as “no cleavage at the P2-P3 bond” and the remaining at 2 h, 0.091 mg/ml (Serum stability assay; BL6, mouse, serum) is reported as 8%.

For CC[C@H](C)[C@H](NC(=O)[C@@H](NC(=O)[C@@H](N)CO)[C@@H](C)CC)C(=O)NC(CC(N)=O)CC(=O)N[C@@H](Cc1ccccc1)C(=O)N[C@@H](CCC(=O)O)C(=O)N[C@@H](CCCCN)C(=O)N[C@@H](CC(C)C)C(=O)O (stereo partly drawn) [Peptide 5], the remaining at 2 h, 0.091 mg/ml (Serum stability assay; BL6, mouse, serum) was 7%.

In the case of CC[C@H](C)[C@H](NC(=O)[C@@H](NC(=O)[C@@H](N)CO)[C@@H](C)CC)C(=O)N[C@@H](CC(N)=O)C(=O)NC(CC(=O)N[C@@H](CCC(=O)O)C(=O)N[C@@H](CCCCN)C(=O)N[C@@H](CC(C)C)C(=O)O)Cc1ccccc1 (stereo partly drawn) [Peptide 6, SIINβFEKL], the “full peptide at t=12 hrs” value (Serum stability assay) is reported as “disappeared”, the “serum cleavage sites (MS of fragments)” value (Serum stability assay) is reported as “cleavage did not occur after the P5 amino acid” and the remaining at 2 h, 0.091 mg/ml (Serum stability assay; BL6, mouse, serum) is reported as greater than 25%.

With CC[C@H](C)[C@H](NC(=O)[C@@H](NC(=O)[C@@H](N)CO)[C@@H](C)CC)C(=O)N[C@@H](CC(N)=O)C(=O)N[C@@H](Cc1ccccc1)C(=O)N[C@@H](CCC(=O)O)C(=O)N[C@@H](CCCCN)C(=O)NC(CC(=O)O)CC(C)C (stereo partly drawn) [Peptide 8, SIINFEKβL] the remaining at 2 h, 0.091 mg/ml (Serum stability assay; [7]) was greater than 25% and the “resistance to proteolytic degradation” value (Serum stability assay; mouse serum, 2 hrs, listed as P8) was “significant resistance; also recorded: most stable”.

Work on H2-K^b specific monoclonal antibody Y-3 yielded a fold increase in surface K^b staining with exogenous peptide [1] of 50 fold.

For SIINFEKL, the cleaved bond [2] was “S-I, 2 hrs; also recorded: I-N, 2 hrs; also recorded: F-E, 2 hrs; also recorded: E-K, 2 hrs”.

For SLLMWITQC [ESO157-165], the “CD8^+ T cell response after peptide vaccination” value (CD8^+ T cell response) is given as “later and at a lower level” and the “binding to HLA-A2” value (HLA-A2) is given as “poor binding”.

With SLLMWITQCFL the fragment found [3] was “ESO157-165; also recorded: ESO159-167”.

For “SLLMWITQCFL [ESO157-167, NY-ESO 157-167 HLA-A*0201-restricted determinant]”, the “CD8^+ T cell response after peptide vaccination” value (CD8^+ T cell response) is given as “vigorous”.

For “SSIEFARL [peptide recognised by the Herpes Simplex Virus specific control clone HSV2.3]”, the “CTL recognition by the clones” value [4] was “not recognised” and the “recognition by control clone HSV2.3” value (CTL clone HSV2.3) was “mainly mediated”.

With Ser Ile Ile Asn β^c3Phe Glu Lys Leu the not cleaved [2] was “At t=12 hrs the full peptide has disappeared leaving only fragments”.

With Ser Ile β^c3Ile Asn Phe Glu Lys Leu the not cleaved [2] was “At t=2 hrs most of the full peptide has disappeared”.

Work on monoclonal antibody 25-D1.16 yielded a fold increase in peptide concentration to reach the same level of recognition as SIINFEKL [5] of 100 fold and a fold increase in peptide concentration to reach the same level of recognition as SIINFEKL [6] of 100 fold.
